Assay results: ChEMBL document CHEMBL3045283, “Synthesis and biological activity of heterocycles from chalcone” (2008)
The source made the active and inactive calls. The rule behind the calls is not given here.

Legend:
Salmonella typhimurium = assay: Antibacterial activity against Salmonella enterica subsp. enterica serovar Typhimurium at 1000 ug/disc; assay type: functional, organism-based
Escherichia coli = assay: Antibacterial activity against Escherichia coli at 1000 ug/disk; assay type: functional
Staphylococcus aureus = assay: Antibacterial activity against Staphylococcus aureus at 1000 ug/disc; assay type: functional
Bacillus subtilis = assay: Antibacterial activity against Bacillus subtilis at 1000 ug/disk; assay type: functional; settings: read-out: IZ

Structure (SMILES): O=c1oc2ccccc2c(O)c1C1=NN(c2ccccc2)C(c2cnn(-c3ccccc3)c2-c2ccccc2O)C1 (configuration not stated)
- inhibition zone (IZ) (Salmonella typhimurium): inactive
- inhibition zone (IZ) (Escherichia coli): inactive
- inhibition zone (IZ) (Staphylococcus aureus): inactive
- zone of inhibition at 1000 µg/disc (Bacillus subtilis): 10 mm

Structure (SMILES): O=c1oc2ccccc2c(O)c1C1=NNC(c2cn[nH]c2-c2ccccc2O)C1 (configuration not stated)
- inhibition zone (IZ) (Salmonella typhimurium): inactive
- zone of inhibition at 1000 µg/disc (Escherichia coli; read-out: IZ): 12 mm
- zone of inhibition at 1000 µg/disc (Staphylococcus aureus; read-out: IZ): 20 mm
- zone of inhibition at 1000 µg/disc (Bacillus subtilis): 25 mm

Structure (SMILES): O=C(/C=C/c1coc2ccccc2c1=O)c1c(O)c2ccccc2oc1=O
- inhibition zone (IZ) (Salmonella typhimurium): inactive
- inhibition zone (IZ) (Escherichia coli): inactive
- inhibition zone (IZ) (Staphylococcus aureus): inactive
- zone of inhibition at 1000 µg/disc (Bacillus subtilis): 12 mm
